Reference: US20100292231A1, “Indazole Compounds for Treating Inflammatory Disorders, Demyelinating Disorders and Cancers” (priority 2007, published 2010)
Read-outs that look alike come from different tables or passages of the source.

Tests used:
FLT3 [1] = biological target: T1, FLT3 (Homo sapiens, UniProt P36888); experiment: SelectScreen FLT3 kinase dose response assay; type: biochemical; conditions: ATP 100 micromolar; for inhibition at 1 µM: read-out: FLT3 Inhibition E1000 (percent inhibition at 1000 nMolar); for EC50: dose response, 4 parameter Hill equation, read-out: FLT3 Inhibition EC50
T1 construct: purchased Invitrogen (SelectScreen platform)
T1 sequence (P36888 27-993): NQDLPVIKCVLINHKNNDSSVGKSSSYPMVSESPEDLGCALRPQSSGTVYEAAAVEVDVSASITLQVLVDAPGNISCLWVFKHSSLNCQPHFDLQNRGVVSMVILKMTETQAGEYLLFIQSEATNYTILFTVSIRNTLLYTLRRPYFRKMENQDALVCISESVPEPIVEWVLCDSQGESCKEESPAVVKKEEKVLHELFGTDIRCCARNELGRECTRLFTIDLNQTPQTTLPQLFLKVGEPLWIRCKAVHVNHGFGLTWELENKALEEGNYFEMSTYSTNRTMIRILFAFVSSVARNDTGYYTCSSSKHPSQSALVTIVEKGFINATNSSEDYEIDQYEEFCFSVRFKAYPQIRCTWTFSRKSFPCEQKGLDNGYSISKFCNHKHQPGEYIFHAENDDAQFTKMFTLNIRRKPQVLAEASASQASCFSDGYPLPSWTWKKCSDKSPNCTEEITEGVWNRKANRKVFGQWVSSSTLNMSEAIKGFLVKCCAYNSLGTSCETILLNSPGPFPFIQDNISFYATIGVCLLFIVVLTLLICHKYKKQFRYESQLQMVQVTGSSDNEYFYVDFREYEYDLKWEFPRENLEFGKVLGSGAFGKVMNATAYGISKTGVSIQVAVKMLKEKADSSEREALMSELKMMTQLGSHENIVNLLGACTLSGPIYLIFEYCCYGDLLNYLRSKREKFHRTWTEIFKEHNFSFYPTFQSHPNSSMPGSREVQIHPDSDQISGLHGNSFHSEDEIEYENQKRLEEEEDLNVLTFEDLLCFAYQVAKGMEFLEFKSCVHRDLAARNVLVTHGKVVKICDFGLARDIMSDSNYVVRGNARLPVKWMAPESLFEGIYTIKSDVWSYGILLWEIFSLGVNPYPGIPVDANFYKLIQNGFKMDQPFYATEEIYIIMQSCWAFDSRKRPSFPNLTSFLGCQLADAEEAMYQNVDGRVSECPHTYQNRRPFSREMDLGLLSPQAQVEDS
Experimental: The terms “IC50” and “EC50” are used interchangeably. As used herein, “EC50” refers to nMolar concentration at median percent inhibition determined by dose respose (DR) assay. As used herein, the term “E1000” refers to percent inhibition at 1000 nMolar determined by assay.
Testing of the compounds described in this invention was carried out using the SelectScreen™ platform from Invitrogen, Inc. (Carlsbad. Calif., USA) and the details of its performance are readily viewed via the web by linking to: http://www.invitrogen.com/downloads/SelectScrn_Brochure.pdf.
Briefly, the approach is based on treating each specific kinase with a unique substrate and optical reporter system in the presence of ATP at 100 micromolar. In controls, the substrate is phosphorylated and a baseline optimal response is recorded.
The compounds were then re-tested by adding graded amounts of putative inhibitor which were added in 5 separate increments to generate a dose response curve. The latter is obtained by fitting to a 4 parameter Hill equation, a sigmoid saturation equation.
For the compounds of this invention, the experimental conditions were as follows. The 2× FLT3/Tyr 02 peptide mixture was prepared in 50 mM HEPES pH 7.5, 0.01 BRIJ-35, 10 mM MgCl2, 1 mM EGTA. The final 10 uL kinase reaction consists of 0.6-76.0 ng FLT3 and 2 uM Tyr 02 peptide in 50 mM HEPES pH 7.5, 0.01% BRIJ-35, 10 mM MgCl2, 1 mM EGTA. After 1 hour kinase reaction incubation, 5 uL of a 1:64 dilution of development reagent A was added.

CSF-1R = biological target: T2, CSF-1R (Homo sapiens, UniProt P07333); experiment: Kinase EC50 (10 pt curve or estimate, ATP Kmapp); type: biochemical; conditions: from 10 pt curve or estimate based on 1 μm inhibition assay at ATP Kmapp
T2 construct: purchased Invitrogen (SelectScreen platform)

[2] = test system: MdaMb231 (breast cancer) cell line; experiment: sulforhodamine B (SRB) cytotoxicity assay; type: cell-based; conditions: Homo sapiens
Experimental: (§1) The cytotoxic activity of compounds listed in Table 5 was determined with a sulforhodamine B (SRB) assay on panel of cell lines, including MdaMb231 (breast cancer), MV4-11 (leukemia), PC-3 (prostate cancer), U266B1 (multiple myeloma), C7 macrophages, and Raw264.7 (murine macrophage-like cells).
(§2) Cells growing in relevant media were seeded in a 96 well plate and left to adhere overnight. Cells were plated at appropriate cell densities: • MV4-11: 20.000 cells/well • Mda-Mb231: 6000 cells/well • C7: 10.000 cells/well • Raw264.7: 2000 cells/well • PC-3: 6000 cells/well • U266B1: 40.000 cells/well.
(§3) Cells were incubated before the compounds were added the next day to a top concentration of 100 μM and serially diluted 1 in 5 across the plate. After a 3 day incubation period (6 days for C7 and Raw264.7) cells were fixed with trichloroacetic acid (TCA) to end concentration of 10% for adherent cells and 16% end concentration for suspension cells for 1 hr at 4° C. before washing. Cells were stained with 0.4% sulforhodamine-B dye (SRB) in 1% acetic acid for 30 minutes and washed in 1% acetic acid. To solubilize the dye 100 μl 10 mM Tris, pH 10.5 was added and the absorbance was read at 564 nm. IC50 values were generated using the SoftMAX Pro™ software. The data is presented below in Tables 6 through 11.

MLCK = biological target: T3, MLCK (Homo sapiens, UniProt Q9H1R3); experiment: Kinase EC50 (10 pt curve or estimate, ATP Kmapp); type: biochemical; conditions: from 10 pt curve or estimate based on 1 μm inhibition assay at ATP Kmapp
T3 construct: purchased Invitrogen (SelectScreen platform)

FLT3 [3] = biological target: T1, FLT3; experiment: Kinase EC50 (10 pt curve or estimate, ATP Kmapp); type: biochemical; conditions: from 10 pt curve or estimate based on 1 μm inhibition assay at ATP Kmapp
[4] = test system: Raw264.7 (murine macrophage-like cells); experiment: sulforhodamine B (SRB) cytotoxicity assay; type: cell-based; conditions: Mus musculus, Table 5 summary, read-out: IC50 SRB assay Raw 264.7
Experimental: as §1, §2, §3

[5] = MDA-MB-231, Table 5 summary, read-out: IC50 SRB assay Mda MB-231
[6] = MDA-MB-231, 72 h, 100 μM highest concentration, diluted 1:5 (two series), 3 day incubation, read-out: IC50 Measured Against MdaMb231 Cell Line

T2 sequence (P07333 20-972): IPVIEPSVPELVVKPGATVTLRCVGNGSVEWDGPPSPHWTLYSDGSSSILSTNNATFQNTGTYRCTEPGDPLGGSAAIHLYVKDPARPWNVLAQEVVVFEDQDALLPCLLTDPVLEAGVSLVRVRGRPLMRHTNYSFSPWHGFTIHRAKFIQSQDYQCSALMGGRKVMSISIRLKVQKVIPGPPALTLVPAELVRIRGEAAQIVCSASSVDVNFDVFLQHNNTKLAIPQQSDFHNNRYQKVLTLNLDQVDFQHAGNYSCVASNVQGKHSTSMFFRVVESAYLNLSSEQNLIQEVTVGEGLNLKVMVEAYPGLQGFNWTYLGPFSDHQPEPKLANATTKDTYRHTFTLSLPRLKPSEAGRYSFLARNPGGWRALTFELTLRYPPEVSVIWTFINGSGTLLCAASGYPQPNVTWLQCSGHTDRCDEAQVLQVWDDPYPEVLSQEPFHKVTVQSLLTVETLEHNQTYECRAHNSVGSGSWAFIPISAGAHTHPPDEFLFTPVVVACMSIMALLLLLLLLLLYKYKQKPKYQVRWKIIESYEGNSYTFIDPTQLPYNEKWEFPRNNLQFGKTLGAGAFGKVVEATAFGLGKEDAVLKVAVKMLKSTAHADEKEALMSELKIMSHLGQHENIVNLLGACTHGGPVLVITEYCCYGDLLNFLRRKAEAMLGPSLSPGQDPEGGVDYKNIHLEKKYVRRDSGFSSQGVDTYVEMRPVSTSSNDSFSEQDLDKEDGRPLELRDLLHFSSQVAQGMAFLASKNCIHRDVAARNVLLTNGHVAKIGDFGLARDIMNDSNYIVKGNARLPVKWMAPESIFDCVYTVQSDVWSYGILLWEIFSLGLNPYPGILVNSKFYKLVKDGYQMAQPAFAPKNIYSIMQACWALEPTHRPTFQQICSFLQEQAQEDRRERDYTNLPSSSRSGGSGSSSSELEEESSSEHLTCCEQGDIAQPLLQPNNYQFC

Structure (SMILES)	inhibition at 1 µM (FLT3 [1]; 1000 nMolar compound) [%]	EC50 (FLT3 [1]) [nM]	EC50 (CSF-1R) [nM]	IC50 [2, 5] [nM]	EC50 (MLCK) [nM]	EC50 (FLT3 [3]) [nM]	IC50 [4] [nM]	IC50 [2, 6] [nM]	FLT3 Inhibition E1000 (percent inhibition at 1000 nMolar) (FLT3 [1]; 1000 nMolar compound) [%]
CNc1ccc2ncn3c4ccc5[nH]ncc5c4c(=O)c1c23 [(VII)]	99	5	–	–	–	–	–	–	–
CCN(CC)c1ccc2ncn3c4ccc5[nH]ncc5c4c(=O)c1c23 [(VI)]	100	5	–	–	–	–	–	–	–
CCN(CC)CCNc1ccc2ncn3c4ccc(O)cc4c(=O)c1c23 [Symadex, 5-(2-(diethylamino)ethylamino)-8-hydroxy-6H-imidazo[4,5,1-de]acridin-6-one, reference compound]	96	24	430	6800	95	40	–	–	–
CN(C)CCNc1ccc2ncn3c4ccc5[nH]ncc5c4c(=O)c1c23 [(XII)]	98	11	360	7400	18	5	< 0.1	7400	–
CCN(CC)CCNc1ccc2ncn3c4ccc5[nH]ncc5c4c(=O)c1c23 [(VIII)]	87	69	–	–	–	–	–	–	–
CN1CCN(CCCNc2ccc3ncn4c5ccc6[nH]ncc6c5c(=O)c2c34)CC1 [(XVII)]	99	8	950	45300	9	15	2.6	45300	–
CN(C)CCCNc1ccc2ncn3c4ccc5[nH]ncc5c4c(=O)c1c23 [Compound (IV)]	98	14	200	5400	21	14	< 0.1	5400	–
CC(CCN1CCOCC1)Nc1ccc2ncn3c4ccc5[nH]ncc5c4c(=O)c1c23 (stereo not shown) [(XVI)]	99	–	245	5100	53	9	25.7	5100	98
CN(C)CCCCCNc1ccc2ncn3c4ccc5[nH]ncc5c4c(=O)c1c23 [(III)]	100	4	–	–	–	–	–	–	–
CN(C)c1ccc2ncn3c4ccc5[nH]ncc5c4c(=O)c1c23 [(IX)]	98	9	–	–	–	–	–	–	–
O=c1c2c(NCCCN3CCOCC3)ccc3ncn(c4ccc5[nH]ncc5c14)c32 [(X)]	98	11	280	–	52	11	2.7	–	–
CCN(CC)CCCNc1ccc2ncn3c4ccc5[nH]ncc5c4c(=O)c1c23 [Compound (XV)]	99	11	490	4000	8	11	< 0.1	4000	–
O=c1c2c(NCCN3CCOCC3)ccc3ncn(c4ccc5[nH]ncc5c14)c32 [Compound (V)]	95	30	–	–	–	–	–	–	–
